# Test results taken from patent US20250339569A1, “CARBONIC ANHYDRASE IX LIGANDS” (priority 2021, published 2025).
# Like-named read-outs stand apart in the source and are kept apart here.
# Assay: Biodistribution study (SPECT/CT) in SK-RC-52 tumor-bearing mice with or without gelofusine
# Type: in vivo, NMRI nude mice
# Conditions: female, NMRI nude, mouse, in vivo, iv, total radioactivity
# Experimental: The effect on tumor uptake of prior injection of gelofusine for kidney protection was investigated in mice bearing the SK-RC-52 tumor. Biodistribution was evaluated using in vivo SPECT/CT imaging. Prior to the in vivo study the compounds (ligands) were initially radiolabeled with In-111 and the stability of radiolabeled compounds was evaluated in buffer at three different timepoints.
# The study was performed in female NMRI nude mice (approximately 6 weeks of age) from Janvier Labs, France, housed up to 5 mice per cage.
# The column was washed with 2 mL water, and then the final product was eluted from the column in EtOH solution (50%) • The sample was formulated in PBS to the final concentration of 150 MBq/mL and 5 nmol/mL.
# SK-RC-52 cells were cultured in RPMI 1640 with GlutaMax-I (Thermo Fisher Scientific #61870044) supplemented with 10% fetal bovine serum+1% penicillin/streptomycin, harvested, washed twice in RPMI 1640 and resuspended at 2×10^7 cells/mL in RPMI 1640. HT-29 cells were cultured in McCoy's 5a Medium Modified (Sigma #M9309). For inoculation of HT-29 cells, cells were harvested, washed twice in PBS and resuspended at 5×10^7 cells/mL in PBS. Cells were kept on ice until inoculation.
# Animals were anaesthetized (isoflurane, 2-4% in ambient air supplemented with 100% 02) prior to tumor inoculation. The tumor cells (100 μL suspension of either SK-RC-52 cells (2×10^6 cells/animal) or HT-29 cells (5×10^6 cells/animal)) were subcutaneously inoculated in the right flank using a 1-mL syringe equipped with a 27 G needle. Tumor growth and animal weight were measured twice per week. Tumor size was measured by caliper and the volume was estimated using the following formula: 0.52×(length×width^2). When tumor sizes reached 150-250 mm^3, animals were randomized into groups (n=3) of similar average tumor volume and body weight.
# Animals were injected intravenously with In-111-labeled compounds (single bolus, 22.3-31.2 MBq, ˜1 nmol ligand, injection volume: 100 μL) in the lateral tail vein using a 29 G syringe.
# CT was performed with helical scan, 300 ms exposure, reconstruction resolution of 250 μm. SPECT was performed with multi-pinhole scan and a 30 s frame time. For the quantification of the radioactivity uptake, regions of interests (ROIs) were drawn over the tumor, kidney, liver, and heart (estimate of blood) identified on the images. Uptake was expressed as percent of injected dose per gram tissue (% ID/g).
Compound,"tissue uptake at 4 h (SK-RC-52, In-111-labeled, 4% gelofusine before, Mean ± SEM, read-out: Blood uptake at 4 h p.i.) [%ID/g]","tissue uptake at 24 h (SK-RC-52, In-111-labeled, 4% gelofusine before, Mean ± SEM, read-out: Kidney uptake at 24 h p.i.) [%ID/g]","tissue uptake at 4 h (SK-RC-52, In-111-labeled, 4% gelofusine before, Mean ± SEM, read-out: Liver uptake at 4 h p.i.) [%ID/g]","tissue uptake (SK-RC-52, In-111-labeled, 4% gelofusine before, Mean ± SEM, read-out: Peak Kidney uptake) [%ID/g]","tissue uptake at 4 h (SK-RC-52, In-111-labeled, no gelofusine, Mean ± SEM, read-out: Blood uptake at 4 h p.i.) [%ID/g]","tissue uptake at 24 h (SK-RC-52, In-111-labeled, no gelofusine, Mean ± SEM, read-out: Kidney uptake at 24 h p.i.) [%ID/g]","tissue uptake at 4 h (SK-RC-52, In-111-labeled, no gelofusine, Mean ± SEM, read-out: Liver uptake at 4 h p.i.) [%ID/g]","tissue uptake (SK-RC-52 tumor mice, In-111-labeled, 4% gelofusine immediately before, Mean ± SEM, N=3, read-out: Peak Tumor Uptake) [%ID/g]","tissue uptake (SK-RC-52 model, with gelofusine, 1-2 hours post injection, read-out: peak kidney uptake) [%ID/g]","tissue uptake at 24 h (SK-RC-52 model, with gelofusine, 24 hours post injection, read-out: kidney uptake) [%ID/g]","tissue uptake at 24 h (SK-RC-52 model, without gelofusine, 24 hours post injection, read-out: kidney uptake) [%ID/g]","tissue uptake (SK-RC-52 tumor, 4% gelofusine immediately before, peak at 4 hours (DPI-4452) or 1 hour (DPI-4501), mean±SEM, read-out: peak tumor uptake) [%ID/g]","tissue uptake (summary over tumor models, read-out: peak tumor uptake, typical (conclusion)) [%ID/g]"
"CC(C)C[C@@H]1NC(=O)[C@H](Cc2cccc(NC(=O)CCCS(N)(=O)=O)c2)NC(=O)[C@H](CC(=O)O)NC(=O)[C@H]2CCCN2C(=O)[C@H](CCC(=O)O)NC(=O)[C@@H](NC(=O)[C@H](CCC(N)=O)NC(=O)CN2CCN(C(=O)CN3CCN(CC(=O)O)CCN(CC(=O)O)CCN(CC(=O)O)CC3)CC2)CSCc2cccc(c2)CSC[C@@H](C(N)=O)NC(=O)[C@H](CO)NC(=O)[C@H](Cc2c[nH]c3ccccc23)NC(=O)[C@H]([C@@H](C)O)NC1=O [DPI-4452, DOTA-PPAc-Gln-[Cys(3MeBn)-Glu-pro-Asp-Af3(Cpsu)-Leu-Thr-Trp-Ser-Cys]-NH2]",0.03 ± 0.01,0.73 ± 0.2,0.12 ± 0.01,1.84 ± 0.14,0.05 ± 0.01,0.95 ± 0.05,0.18 ± 0.04,13.4 ± 0.39,–,–,–,–,–
"CC(C)C[C@@H]1NC(=O)[C@H](Cc2cccc(NC(=O)CCCS(N)(=O)=O)c2)NC(=O)[C@H](CC(=O)O)NC(=O)[C@H]2CCCN2C(=O)[C@H](CCC(=O)O)NC(=O)[C@@H](NC(=O)[C@H](CCC(N)=O)NC(=O)CN2CCN(C(=O)CN3CCN(CC(=O)O)CCN(CC(=O)O)CCN(CC(=O)O)CC3)CC2)CSCc2cccc(c2)CSC[C@@H](C(N)=O)NC(=O)[C@H](CO)NC(=O)[C@H](Cc2c[nH]c3ccccc23)NC(=O)[C@H]([C@@H](C)O)NC1=O [[^111In]In-DPI-4452, metal not drawn]",–,–,–,–,–,–,–,–,1.84 ± 0.14,0.73 ± 0.02,0.95 ± 0.05,13.4 ± 0.39,7
